Measured values from article PMC9982066, “Inhibition of Ehrlichia chaffeensis infection by cell-permeable macrocyclic peptides that bind type IV secretion effector Etf-1” (PNAS Nexus, 2023).
Starred links: 1 amine or outer side, 2 acyl side, 3 side chain; linkers in the order of their positions; H or OH if unused. Positions of bridges follow the written chain, without caps; N, C: chain ends. Non-standard residues stand in square brackets, D forms with d. Residues, ends and D or L forms follow the SMILES beside them. *: point of attachment. 5FAM = O=C1OC2(c3ccc(O)cc3Oc3cc(O)ccc32)c2ccc(C(=O)*)cc21; Trimesoyl = O=C(c1cc(C(=O)[*:2])cc(C(=O)[*:3])c1)[*:1]; Phe(4-Cl) = N[C@@H](Cc1ccc(Cl)cc1)C(=O)O; Phe(4-F) = N[C@@H](Cc1ccc(F)cc1)C(=O)O; d2Nal = N[C@H](Cc1ccc2ccccc2c1)C(=O)O; βAsp = O=C(O)[C@H](CC(=O)[*:2])N[*:1]; Phg = N[C@H](C(=O)O)c1ccccc1; Dap = NC[C@H](N)C(=O)O; βAla = NCCC(=O)O

Columns and labels:
[1] = system: E. chaffeensis; assay: morphological examination of E. chaffeensis infection of THP-1 cells by Diff-Quik staining; conditions: for E. chaffeensis infection (numbers and sizes of morulae): THP-1 cells, Fig. S4 (with Figs. 5, S3)
Protocol: Ehrlichia chaffeensis Arkansas strain ([43]) was cultured in THP-1 cells (ATCC, Manassas, VA, USA) in RPMI 1640 medium (Corning, Manassas, VA, USA) supplemented with 8% FBS (Atlanta Biologicals, Flowery Branch, GA, USA) and 4 mM L-glutamine (at 37°C under 5% CO2 in a humidified atmosphere. THP-1 cells were seeded at 1 × 10^5 cells/well (in 1.5-mL RPMI 1640 culture medium with 8% FBS, 4 mM L-Gln) in a 12-well plate, then infected with host cell-free E. chaffeensis at an MOI (multiplicity of infection, or numbers of bacteria per cell) of ∼30. Cells were cultured in a humidified incubator with 5% CO2 and 95% air. No antibiotic was used throughout the study. At 0.5 h post infection (pi), cells were incubated with 1–10 μM of peptides or with an equal volume of DMSO (solvent control, 2 μL per mL medium). At 2 days pi, cells were washed with 1 mL of PBS, and two drops of cells were cytospun onto glass slides by a Shandon Cytospin 4 cytocentrifuge (Thermo Fisher Scientific), then fixed and stained with HEMA 3 staining solutions (Thermo Fisher Scientific). Ehrlichia infection was observed and images were captured by a SPOT RT digital camera (Diagnostic Instruments, Sterling Heights, MI, USA) coupled to a Nikon Eclipse E400 microscope (Nikon, Melville, NY, USA).

[2] = system: THP-1 cells; assay: CellTiter-Glo luminescent cell viability assay; conditions: 2-day treatment; for cell viability: 20 μM
Text: THP-1 (human promyelocytic leukemia) cells are widely used as E. chaffeensis infection studies of human monocytes in vitro, since initial characterization of infection ([31]).
Fig. 4. Cytotoxicity and proteolytic stability of Etf-1-binding peptides. (A) Effect of Etf-1-binding peptides on the viability of THP-1 cells as determined by CellTiter-Glo luminescent assay. Relative luminescence was plotted as function of the peptide concentration, with the cell viability of DMSO control group set as 100%. (B) Plot of the amount of intact peptide remaining as a function of the incubation time in 25% human serum. All values are normalized to that of peptide at time 0 (100%).
Cytotoxicity of Etf-1-binding peptides was examined by CellTiter-Glo luminescent cell viability assay (Promega, Madison, WI, USA). THP-1 cells were seeded in a transparent 96-well plate at a density of 5 × 10^3 cells/well (100 μL in each well) in RPMI-1640 containing 10% FBS and 1% antibiotics and cultured overnight. Etf-1-binding peptides were serially diluted in DPBS from a DMSO stock and added to the cells with the final concentration of 0–25 μM and a constant final concentration of 0.5% DMSO (v/v). After incubation at 37°C with 5% CO2 for 46 h, the plate was removed and pre-equilibrated to RT before the addition of 100 μL of the CellTiter-Glo 2.0 reagent to each well. The plate was incubated for 15 min on a rotary shaker in the dark, and the luminescence was detected (1-s integration time) on a Tecan Infinite M1000 Pro microplate reader. Relative luminescence was plotted as function of the peptide concentration, with the cell viability of DMSO control group set as 100%.

[3] = system: BECN1 binding to Etf-1; assay: streptavidin magnetic beads pull-down of BECN1 with biotin-Etf-1, Western blot; assay type: biochemical; conditions: 10 µM peptide; for BECN1/Etf-1 Ratio: band intensities, DMSO control set as 1, Fig. 8B
Protocol: Fig. 8.
Streptavidin magnetic beads (15 µL, Pierce, Rockford, IL, USA) were washed with 1 mL of Bind/Wash buffer (25 mM Tris, pH 7.4; 250 mM NaCl, 0.1% Tween 20), and incubated with 0.15 µg ([…] final concentration) of biotinylated full-length Etf-1 protein in bind/wash buffer at 4°C overnight with end-to-end rotation. Beads were washed three times with Bind/Wash buffer, then incubated with Etf-1-binding macrocyclic peptides (10 µM) or DMSO control in Bind/Wash buffer at room temperature for 2 h. […] Beads were washed three times, and proteins were eluted from the beads with 50 µL of 2× SDS-sample buffer. […] Reacting bands were visualized with enhanced chemiluminescence by incubating the membrane with LumiGLO chemiluminescent reagent (Thermo Fisher Scientific). Images were captured by Amersham Imager 680 (GE Healthcare) and densitometry analysis was performed using ImagQuaNT (GE Healthcare). In each specimen, band intensities were normalized against those of actin as the loading control, and the ratios of the treatment group to the control group were calculated with the value in the control groups arbitrarily set as 1.0.

[4] = target: Etf-1 (Ehrlichia chaffeensis, UniProt Q2GG12); assay: biochemical; assay type: binding; conditions: unlabeled competitor peptides vs FAM-B7-133-8
Protocol: Fig. 2. Determination of binding affinity of Etf-1-binding peptides by FP assay. […] FAM-labeled peptide (50 nM) was incubated with serially diluted Etf-1 (starting from 25–30 μM in PBS, pH 7.4, supplemented with 5 mM DTT and 0.01% Triton X-100) for 1 h at RT. FP values were measured on a Tecan Infinite M1000 Pro plate reader. Titration curves (n ≥ 3) were fitted using GraphPad Prism and analyzed with TraceDrawer to calculate dissociation constants (KD). […] Data were analyzed using GraphPad Prism and fitted to a four-parameter variable slope equation to determine IC50 values.
Serial dilutions of competitor peptide (0-20 μM) were prepared from DMSO stock solutions into PBS containing 0.01% Triton-X100 and 2 mM TCEP and added to aliquots of the equilibrated Etf-1/probe solution. After incubation for 1 h in the dark and with gentle mixing, 20 μL of each sample was transferred into 384-well black-on-black microplates and FP was measured using a TECAN Infinite M1000 plate reader. Data were analyzed using GraphPad PRISM ver. 8.0 and fit to a four-parameter variable slope equation to determine IC50 values. IC50 values reported are the mean ± SD of n = 2–4 independent experiments.

[5] = LDH release assay (plasma membrane damage); assay type: cell-based; conditions: Fig. S2
Protocol: LDH release assay (Promega) was performed to assess the level of plasma membrane damage in a cell population by these compounds. […] Control wells contained 10 μL of lysis buffer, cell-free complete growth media, or positive LDH control. Following incubation at 37°C and 5% CO2 for 45 to 75 min, the culture was centrifuged and 50 μL of the growth medium was withdrawn from each well, transferred to a clear 96-well plate, mixed with 50 μL of LDH substrate mixture, and incubated at RT for 30 min with gentle mixing. Finally, 50 μL of 1 N HCl was added to each well, and the absorbances at 490 and 680 nm were immediately measured on a Tecan Infinite M1000 plate reader. Relative membrane leakage was calculated and plotted using GraphPad Prism v8.0.

[6] = system: E. chaffeensis; assay: E. chaffeensis infection of THP-1 cells, qPCR of 16S rRNA gene normalized to human actin; assay type: cell-based, Ehrlichia chaffeensis; conditions: 10 μM, 2 days, vs DMSO control
Protocol: Therefore, we investigated whether these Etf-1-binding peptides can prevent the proliferation of E. chaffeensis inside host cells. THP-1 cells were infected with E. chaffeensis, then treated with the peptides at 30 min post infection (pi) for 2 days. Intracellular infection and proliferation of E. chaffeensis inside host THP-1 cells were assessed using quantitative PCR (qPCR) analysis based on E. chaffeensis 16S rRNA gene normalized by human actin (ACT) gene.
Fig. 5. Effects of Etf-1-binding peptides on E. chaffeensis infection of THP-1 cells. Ehrlichia chaffeensis-infected THP-1 cells at […] were incubated with 10 μM of Etf-1-binding macrocyclic peptide or DMSO control for 2 days.
No antibiotic was used throughout the study.
DNA was extracted from each sample using Qiagen blood mini kit according to the manufacturer's instructions (Qiagen, Valencia, CA, USA), and qPCR analysis was performed in an MX3000P qPCR instrument (Stratagene, San Diego, CA, USA) using SYBR Green Real-Time PCR Master Mix (Thermo Fisher Scientific) according to the manufacturer's instructions. Five-fold serial dilutions of the control group were used to generate a standard curve to calculate the relative copy numbers of E. chaffeensis 16S rRNA normalized against human actin genes using the MX3000P software from Stratagene as described previously ([18], [44]).

Etf-1, sequence (Q2GG12 entry or part of it): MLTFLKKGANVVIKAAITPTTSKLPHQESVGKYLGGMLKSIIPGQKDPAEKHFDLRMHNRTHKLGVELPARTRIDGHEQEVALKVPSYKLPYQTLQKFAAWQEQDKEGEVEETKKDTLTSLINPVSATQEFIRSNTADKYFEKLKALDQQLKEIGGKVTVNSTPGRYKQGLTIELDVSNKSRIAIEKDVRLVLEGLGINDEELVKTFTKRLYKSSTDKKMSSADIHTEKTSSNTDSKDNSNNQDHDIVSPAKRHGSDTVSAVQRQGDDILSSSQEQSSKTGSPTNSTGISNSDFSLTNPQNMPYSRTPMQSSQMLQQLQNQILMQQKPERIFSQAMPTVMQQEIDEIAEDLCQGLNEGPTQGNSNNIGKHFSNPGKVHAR

| SMILES | E. chaffeensis infection (numbers and sizes of morulae) [1] | cell viability [2] | cytotoxicity ([2]; up to 10 μM) | BECN1/Etf-1 Ratio [3] | competition for Etf-1 binding [4] | cytotoxicity (cell lysis in treated groups) ([1]; THP-1 host cells) | release of lactate dehydrogenase (LDH) [5] | disruption of BECN1 binding to Etf-1 ([3]; compared to DMSO control) | inhibition of E. chaffeensis infection [6] |
| --- | --- | --- | --- | --- | --- | --- | --- | --- | --- |
| CC(C)C[C@H]1NC(=O)C[C@@H](C(=O)O)NC(=O)[C@@H](Cc2ccc(O)cc2)NC(=O)[C@H](c2ccccc2)NC(=O)[C@H](CC(=O)O)NC(=O)[C@H](Cc2ccc(F)cc2)NC(=O)[C@H](Cc2ccc(O)cc2)NC(=O)c2cc3cc(c2)C(=O)NC[C@H](NC1=O)C(=O)N[C@@H](Cc1ccc(Cl)cc1)C(=O)N[C@H](Cc1ccc2ccccc2c1)C(=O)N[C@H](CCCNC(=N)N)C(=O)N[C@@H](CCCNC(=N)N)C(=O)N[C@H](CCCNC(=N)N)C(=O)N[C@@H](CCCNC(=N)N)C(=O)N[C@H](C(=O)NCCC(=O)NCCC(=O)N[C@@H](CCCCNC(=O)c1ccc2c(c1)C(=O)OC21c2ccc(O)cc2Oc2cc(O)ccc21)C(N)=O)CNC3=O [Peptide B7-131-4, TMA-Tyr-Fpa-Asp-Phg-tyr-isoAsp-leu-Dap-4-ClPhe-nal-arg-Arg-arg-Arg-Dap] (Y[Phe(4-F)]D[Phg][dY][βAsp][dL][Dap][Phe(4-Cl)][d2Nal][dR]R[dR]R[Dap][βAla][βAla]K(5FAM)-NH2; linker N-8-15 via Trimesoyl) | only slightly reduced | slightly reduced the cell viability | no cytotoxicity | 0.91 | Competition for Etf-1 binding was observed |  |  |  |  |
| CC(C)C[C@H]1NC(=O)[C@H](C)NC(=O)[C@H](CC(=O)O)NC(=O)[C@@H](Cc2ccc3ccccc3c2)NC(=O)[C@H]2CCCN2C(=O)[C@H](Cc2c[nH]cn2)NC(=O)[C@H](Cc2ccc(O)cc2)NC(=O)c2cc3cc(c2)C(=O)NC[C@H](NC1=O)C(=O)N[C@@H](Cc1ccc(Cl)cc1)C(=O)N[C@H](Cc1ccc2ccccc2c1)C(=O)N[C@H](CCCNC(=N)N)C(=O)N[C@@H](CCCNC(=N)N)C(=O)N[C@H](CCCNC(=N)N)C(=O)N[C@@H](CCCNC(=N)N)C(=O)N[C@H](C(N)=O)CNC3=O [Peptide B7-131-5, TMA-Tyr-His-pro-nal-Asp-Ala-leu-Dap-4-ClPhe-nal-arg-Arg-arg-Arg-Dap] (YH[dP][d2Nal]DA[dL][Dap][Phe(4-Cl)][d2Nal][dR]R[dR]R[Dap]-NH2; linker N-8-15 via Trimesoyl) | significantly inhibited | greater loss of cell viability |  | 0.23 | Competition for Etf-1 binding was observed | certain degrees of cytotoxicity | significant release of lactate dehydrogenase | disrupted BECN1 binding to Etf-1 | significantly inhibited |
